Data from patent publication US8134015B2, “Compound inhibiting in vivo phosphorous transport and medicine containing the same” (Kyowa Hakko Kirin Co., Ltd., priority 2003, dated 2012).
Counter-ions that a name gives are not always drawn.

target: T1, rat NaPi-2b (Rattus norvegicus, UniProt Q9JJ09); assay: Sodium-dependent phosphate uptake of Xenopus oocytes which expressed NaPi-2b (32P); format: cell-based; details: Xenopus oocytes expressing rat NaPi-2b, 32P radioactive phosphorus; read-out: IC50 (phosphate uptake inhibitory activity)
T1 construct: expressed in transfected cells; host or cells: Xenopus oocytes injected with cRNA
T1 sequence (Q9JJ09 1-695): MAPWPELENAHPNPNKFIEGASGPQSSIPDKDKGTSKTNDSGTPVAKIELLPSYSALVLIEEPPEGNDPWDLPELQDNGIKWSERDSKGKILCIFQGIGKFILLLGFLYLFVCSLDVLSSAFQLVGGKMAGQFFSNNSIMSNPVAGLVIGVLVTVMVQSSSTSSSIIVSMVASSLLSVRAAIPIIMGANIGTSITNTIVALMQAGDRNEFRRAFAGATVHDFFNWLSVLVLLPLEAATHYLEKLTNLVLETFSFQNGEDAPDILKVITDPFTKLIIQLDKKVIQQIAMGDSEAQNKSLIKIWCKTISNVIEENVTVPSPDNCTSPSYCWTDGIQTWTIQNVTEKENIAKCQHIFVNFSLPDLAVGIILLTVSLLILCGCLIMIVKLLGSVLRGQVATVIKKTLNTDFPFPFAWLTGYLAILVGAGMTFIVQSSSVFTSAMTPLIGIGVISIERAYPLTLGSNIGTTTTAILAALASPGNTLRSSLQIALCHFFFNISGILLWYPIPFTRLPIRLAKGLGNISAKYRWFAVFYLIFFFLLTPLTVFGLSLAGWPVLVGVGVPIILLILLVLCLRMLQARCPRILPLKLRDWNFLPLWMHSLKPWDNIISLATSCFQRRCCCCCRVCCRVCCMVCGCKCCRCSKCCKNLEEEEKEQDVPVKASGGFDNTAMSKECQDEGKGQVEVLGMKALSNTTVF
How it was run: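 Rat NaPi-2b cloned from small-intestine cDNA; cRNA injected into Xenopus oocytes, expression for 2 days. Phosphate uptake inhibition measured with 32P; percent inhibition at 300 μM and 100 μM read from the same inhibition curve.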

Row | IC50 [µM] | Structure (SMILES)
1 | 5.12 | O=C(Nc1ccc(Br)cc1C(=O)N/N=C/c1ccc(Cl)c(C(F)(F)F)c1)c1ccncc1 [Compound 171, N-[4-Bromo-2-(4-chloro-3-trifluoromethyl-benzylidene-hydrazinocarbonyl)-phenyl]-isonicotinamide]
2 | 2.74 | O=C(Nc1ccc(Br)cc1C(=O)N/N=C/c1cccc(F)c1)c1cccnc1 [Compound 172, N-[4-Bromo-2-(3-fluoro-benzylidene-hydrazinocarbonyl)-phenyl]-nicotinamide]
3 | 7.4 | O=C(Nc1ccc(Br)cc1C(=O)N/N=C/c1ccc(F)cc1)c1cccnc1 [Compound 173, N-[4-Bromo-2-(4-fluoro-benzylidene-hydrazinocarbonyl)-phenyl]-nicotinamide]
4 | 12.5 | Cc1cccc(/C=N/NC(=O)c2cc(Br)ccc2NC(=O)c2cccnc2)c1 [Compound 174, N-[4-Bromo-2-(3-methyl-benzylidene-hydrazinocarbonyl)-phenyl]-nicotinamide]
5 | 3.57 | Cc1ccc(/C=N/NC(=O)c2cc(Br)ccc2NC(=O)c2cccnc2)cc1 [Compound 175, N-[4-Bromo-2-(4-methyl-benzylidene-hydrazinocarbonyl)-phenyl]-nicotinamide]
6 | 4.1 | Cc1ccc(/C=N/NC(=O)c2cc(Br)ccc2NC(=O)c2cccnc2)cc1C [Compound 176, N-[4-Bromo-2-(3,4-dimethyl-benzylidene-hydrazinocarbonyl)-phenyl]-nicotinamide]
7 | 26 | O=C(Nc1ccc(Br)cc1C(=O)N/N=C/c1ccc(Cl)c(C(F)(F)F)c1)c1cccnc1 [Compound 177, N-[4-Bromo-2-(4-chloro-3-trifluoromethyl-benzylidene-hydrazinocarbonyl)-phenyl]-nicotinamide]
8 | 7.54 | CCc1ccc(C(=O)Nc2ccc(Br)cc2C(=O)N/N=C/c2cccc(F)c2)cc1 [Compound 178, N-[4-Bromo-2-(3-fluoro-benzylidene-hydrazinocarbonyl)-phenyl]-4-ethyl-benzamide]
9 | 18.7 | CCc1ccc(C(=O)Nc2ccc(Br)cc2C(=O)N/N=C/c2ccc(F)cc2)cc1 [Compound 179, N-[4-Bromo-2-(4-fluoro-benzylidene-hydrazinocarbonyl)-phenyl]-4-ethyl-benzamide]
10 | < 3 | CCc1ccc(C(=O)Nc2ccc(Br)cc2C(=O)N/N=C/c2cccc(C)c2)cc1 [Compound 180, N-[4-Bromo-2-(3-methyl-benzylidene-hydrazinocarbonyl)-phenyl]-4-ethyl-benzamide]
11 | 3.16 | CCc1ccc(C(=O)Nc2ccc(Br)cc2C(=O)N/N=C/c2ccc(C)cc2)cc1 [Compound 181, N-[4-Bromo-2-(4-methyl-benzylidene-hydrazinocarbonyl)-phenyl]-4-ethyl-benzamide]
12 | 10.2 | CCc1ccc(C(=O)Nc2ccc(Br)cc2C(=O)N/N=C/c2ccc(C)c(C)c2)cc1 [Compound 182, N-[4-Bromo-2-(3,4-dimethyl-benzylidene-hydrazinocarbonyl)-phenyl]-4-ethyl-benzamide]
13 | < 3 | CCc1ccc(C(=O)Nc2ccc(Br)cc2C(=O)N/N=C/c2ccc(Cl)c(C(F)(F)F)c2)cc1 [Compound 183, N-[4-Bromo-2-(4-chloro-3-trifluoromethyl-benzylidene-hydrazinocarbonyl)-phenyl]-4-ethyl-benzamide]
14 | 4.01 | O=C(Nc1ccc(Cl)cc1C(=O)N/N=C/c1cccc(F)c1)c1cccnc1 [Compound 184, N-[4-Chloro-2-(3-fluoro-benzylidene-hydrazinocarbonyl)-phenyl]-nicotinamide]
15 | 2.02 | O=C(Nc1ccc(Cl)cc1C(=O)N/N=C/c1ccc(F)cc1)c1cccnc1 [Compound 185, N-[4-Chloro-2-(4-fluoro-benzylidene-hydrazinocarbonyl)-phenyl]-nicotinamide]
16 | 10.1 | Cc1cccc(/C=N/NC(=O)c2cc(Cl)ccc2NC(=O)c2cccnc2)c1 [Compound 186, N-[4-Chloro-2-(3-methyl-benzylidene-hydrazinocarbonyl)-phenyl]-nicotinamide]
17 | 7.87 | Cc1ccc(/C=N/NC(=O)c2cc(Cl)ccc2NC(=O)c2cccnc2)cc1 [Compound 187, N-[4-Chloro-2-(4-methyl-benzylidene-hydrazinocarbonyl)-phenyl]-nicotinamide]

Row | IC50 [µM] | Structure (SMILES)
18 | 19.4 | Cc1ccc(/C=N/NC(=O)c2cc(Cl)ccc2NC(=O)c2cccnc2)cc1C [Compound 188, N-[4-Chloro-2-(3,4-dimethyl-benzylidene-hydrazinocarbonyl)-phenyl]-nicotinamide]
19 | 1.47 | O=C(Nc1ccc(Cl)cc1C(=O)N/N=C/c1ccc(Cl)c(C(F)(F)F)c1)c1cccnc1 [Compound 189, N-[4-Chloro-2-(4-chloro-3-trifluoromethyl-benzylidene-hydrazinocarbonyl)-phenyl]-nicotinamide]
20 | 20.3 | O=C(Nc1ccc(Cl)cc1C(=O)N/N=C/c1ccc(F)cc1)c1ccncc1 [Compound 190, N-[4-Chloro-2-(4-fluoro-benzylidene-hydrazinocarbonyl)-phenyl]-isonicotinamide]
21 | 12.1 | Cc1cccc(/C=N/NC(=O)c2cc(Cl)ccc2NC(=O)c2ccncc2)c1 [Compound 191, N-[4-Chloro-2-(3-methyl-benzylidene-hydrazinocarbonyl)-phenyl]-isonicotinamide]
22 | 23.1 | Cc1ccc(/C=N/NC(=O)c2cc(Cl)ccc2NC(=O)c2ccncc2)cc1 [Compound 192, N-[4-Chloro-2-(4-methyl-benzylidene-hydrazinocarbonyl)-phenyl]-isonicotinamide]
23 | 4.21 | Cc1ccc(/C=N/NC(=O)c2cc(Cl)ccc2NC(=O)c2ccncc2)cc1C [Compound 193, N-[4-Chloro-2-(3,4-dimethyl-benzylidene-hydrazinocarbonyl)-phenyl]-isonicotinamide]
24 | 7.36 | O=C(Nc1ccc(Cl)cc1C(=O)N/N=C/c1ccc(Cl)c(C(F)(F)F)c1)c1ccncc1 [Compound 194, N-[4-Chloro-2-(4-chloro-3-trifluoromethyl-benzylidene-hydrazinocarbonyl)-phenyl]-isonicotinamide]
25 | 0.98 | O=C(Nc1ccc(Br)cc1C(=O)N/N=C/c1cccc(F)c1)c1cccc(CSc2ccncc2)c1 [Compound 195, N-[4-Bromo-2-(3-fluoro-benzylidene-hydrazinocarbonyl)-phenyl]-3-(pyridin-4-ylsulfanylmethyl)-benzamide]
26 | 0.61 | O=C(Nc1ccc(Br)cc1C(=O)N/N=C/c1ccc(F)cc1)c1cccc(CSc2ccncc2)c1 [Compound 196, N-[4-Bromo-2-(4-fluoro-benzylidene-hydrazinocarbonyl)-phenyl]-3-(pyridin-4-ylsulfanylmethyl)-benzamide]
27 | 4.87 | Cc1cccc(/C=N/NC(=O)c2cc(Br)ccc2NC(=O)c2cccc(CSc3ccncc3)c2)c1 [Compound 197, N-[4-Bromo-2-(3-methyl-benzylidene-hydrazinocarbonyl)-phenyl]-3-(pyridin-4-ylsulfanylmethyl)-benzamide]
28 | 2.71 | Cc1ccc(/C=N/NC(=O)c2cc(Br)ccc2NC(=O)c2cccc(CSc3ccncc3)c2)cc1 [Compound 198, N-[4-Bromo-2-(4-methyl-benzylidene-hydrazinocarbonyl)-phenyl]-3-(pyridin-4-ylsulfanylmethyl)-benzamide]
29 | 1.82 | Cc1ccc(/C=N/NC(=O)c2cc(Br)ccc2NC(=O)c2cccc(CSc3ccncc3)c2)cc1C [Compound 199, N-[4-Bromo-2-(3,4-dimethyl-benzylidene-hydrazinocarbonyl)-phenyl]-3-(pyridin-4-ylsulfanylmethyl)-benzamide]
30 | 0.39 | O=C(Nc1ccc(Br)cc1C(=O)N/N=C/c1ccc(Cl)c(C(F)(F)F)c1)c1cccc(CSc2ccncc2)c1 [Compound 200, N-[4-Bromo-2-(4-chloro-3-trifluoromethyl-benzylidene-hydrazinocarbonyl)-phenyl]-3-(pyridin-4-ylsulfanylmethyl)-benzamide]
31 | 11.1 | COc1ccc(C(=O)Nc2ccc(Br)cc2C(=O)N/N=C/c2cccn2C)cc1OC [Compound 201, N-[4-Bromo-2-(1-methyl-1H-pyrrol-2-ylmethylene-hydrazinocarbonyl)-phenyl]-3,4-dimethoxy-benzamide]
32 | 3.14 | COc1ccc(C(=O)Nc2ccc(Br)cc2C(=O)N/N=C/c2cc(C)c(C)o2)cc1OC [Compound 202, N-[4-Bromo-2-(4,5-dimethyl-furan-2-ylmethylene-hydrazinocarbonyl)-phenyl]-3,4-dimethoxy-benzamide]
33 | < 3 | Cc1ccc(/C=N/NC(=O)c2ccccc2NC(=O)c2ccncc2)cc1 [Compound 203, N-[2-(4-Methyl-benzylidene-hydrazinocarbonyl)-phenyl]-isonicotinamide hydrochloride]
34 | < 3 | COc1ccc(C(=O)Nc2ccc(I)cc2C(=O)N/N=C/c2cccc(F)c2)cc1OC [Compound 204, N-[2-(3-Fluoro-benzylidene-hydrazinocarbonyl)-4-iodo-phenyl]-3,4-dimethoxy-benzamide]
